# Experiments:
# [1] = molecular target: T1, Recombinant human His6-USP1/His6-UAF1 complex protein (Homo sapiens, UniProt O94782); assay: In vitro inhibitory activity against USP1 (Ubiquitin Rhodamine 110 fluorescence detection, 384-well plate); type: biochemical; details: Ub-Rho substrate, 1 hour pre-incubation, read after 30 minutes
# T1 construct: His6; purchased R&D E-568-050
# How it was run: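 Fluorescence assay measuring inhibition of recombinant human His6-USP1/His6-UAF1 complex with Ubiquitin-Rhodamine 110 substrate. Compounds held as 50 mM stocks in 100% DMSO and dispensed by acoustic transfer into modified Tris assay buffer.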
# [2] = system: MDA-MB-436; assay: CTG experiment for cell viability (CellTiter-Glo, 96-well plate, 7 days); type: cell-based; details: Homo sapiens, MDA-MB-436, 168 h, MDA-MB-436 cells, 7 days culture with compound
# How it was run: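 MDA-MB-436 cells in DMEM were plated in 96-well format, treated with compounds, and cultured 7 days at 37°C. After removing the medium, cells were given PBS plus CellTiter-Glo reagent, incubated 10 min at room temperature, and luminescence was read. Curves were fitted as for the enzyme assay.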
# T1 sequence (O94782 whole entry): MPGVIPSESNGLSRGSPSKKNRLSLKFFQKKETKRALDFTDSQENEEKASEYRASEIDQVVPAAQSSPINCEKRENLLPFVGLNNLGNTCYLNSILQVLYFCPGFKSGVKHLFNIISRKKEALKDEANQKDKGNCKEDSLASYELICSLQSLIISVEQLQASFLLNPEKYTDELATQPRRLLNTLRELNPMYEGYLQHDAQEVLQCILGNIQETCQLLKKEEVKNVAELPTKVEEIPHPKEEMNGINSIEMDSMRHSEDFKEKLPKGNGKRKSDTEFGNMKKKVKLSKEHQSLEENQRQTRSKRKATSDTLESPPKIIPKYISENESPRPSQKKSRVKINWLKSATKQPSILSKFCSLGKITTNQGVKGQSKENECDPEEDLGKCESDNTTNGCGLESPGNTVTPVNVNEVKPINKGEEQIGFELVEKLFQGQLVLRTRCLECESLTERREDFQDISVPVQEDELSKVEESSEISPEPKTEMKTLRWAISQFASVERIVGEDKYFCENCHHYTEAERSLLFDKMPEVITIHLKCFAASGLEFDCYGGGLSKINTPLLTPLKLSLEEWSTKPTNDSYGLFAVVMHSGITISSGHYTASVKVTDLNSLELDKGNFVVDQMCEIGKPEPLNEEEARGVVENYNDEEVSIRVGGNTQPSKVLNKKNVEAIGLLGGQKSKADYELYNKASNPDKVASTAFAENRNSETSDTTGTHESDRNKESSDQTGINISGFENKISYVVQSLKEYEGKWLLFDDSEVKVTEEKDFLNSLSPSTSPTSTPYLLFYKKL
# T1 sequence (Q8TAF3 whole entry partner): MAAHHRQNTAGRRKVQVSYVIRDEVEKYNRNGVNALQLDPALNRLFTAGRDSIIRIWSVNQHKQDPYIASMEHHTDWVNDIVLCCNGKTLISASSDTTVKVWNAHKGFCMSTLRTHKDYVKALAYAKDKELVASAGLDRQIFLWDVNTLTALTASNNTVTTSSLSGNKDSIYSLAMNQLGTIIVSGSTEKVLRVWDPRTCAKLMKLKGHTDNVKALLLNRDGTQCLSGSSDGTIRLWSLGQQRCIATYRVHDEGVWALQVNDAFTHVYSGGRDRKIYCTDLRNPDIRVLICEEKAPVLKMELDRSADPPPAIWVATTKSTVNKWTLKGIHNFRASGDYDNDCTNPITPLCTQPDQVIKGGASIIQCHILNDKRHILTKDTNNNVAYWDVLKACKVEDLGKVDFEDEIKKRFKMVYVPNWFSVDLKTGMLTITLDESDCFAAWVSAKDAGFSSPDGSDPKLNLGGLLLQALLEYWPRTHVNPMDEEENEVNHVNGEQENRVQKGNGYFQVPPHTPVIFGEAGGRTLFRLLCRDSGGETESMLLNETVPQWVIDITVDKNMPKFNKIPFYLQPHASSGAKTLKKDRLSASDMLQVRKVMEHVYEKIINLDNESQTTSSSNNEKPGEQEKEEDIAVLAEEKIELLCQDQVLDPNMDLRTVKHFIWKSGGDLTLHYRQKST
Compound,IC50 [1] [nM],IC50 [2] [nM]
"COc1cnc(-c2c(OC)ncnc2C2CC2)nc1N(C)Cc1ccc(-c2nc(C(F)(F)F)cn2C(C)C)cc1 [Example 93, 4'-Cyclopropyl-N-(4-(1-isopropyl-4-(trifluoromethyl)-1H-imidazol-2-yl)benzyl)-5,6'-dimethoxy-N-methyl-[2,5'-bipyrimidin]-4-amine]",1.5,3.5
"COc1cnc(-c2c(OC)ncnc2C2CC2)nc1NCc1ccc(-c2ccccn2)cc1 [Example 94, 4'-Cyclopropyl-5,6'-dimethoxy-N-(4-(pyridin-2-yl)benzyl)-[2,5'-bipyrimidin]-4-amine]",6.5,275
"COc1cnc(-c2c(OC)ncnc2C2CC2)nc1NCC1CCN(c2nc(C(F)(F)F)cn2C)CC1 [Example 95, 4'-Cyclopropyl-5,6'-dimethoxy-N-((1-(1-methyl-4-(trifluoromethyl)-1H-imidazol-2-yl)piperidin-4-yl)methyl)-[2,5'-bipyrimidin]-4-amine]",8.4,75.1
"COc1cnc(-c2c(OC)ncnc2C2CC2)nc1NCc1ccc(-c2nc(C(F)(F)F)cn2C)cc1 [Example 96, 4'-Cyclopropyl-5,6'-dimethoxy-N-(4-(1-methyl-4-(trifluoromethyl)-1H-imidazol-2-yl)benzyl)-[2,5'-bipyrimidin]-4-amine]",4.8,12
"COc1cnc(-c2c(OC)ncnc2C2CC2)nc1NCc1ccc(OCc2ccccn2)cc1 [Example 98, 4'-Cyclopropyl-5,6'-dimethoxy-N-(4-(pyridin-2-ylmethoxy)benzyl)-[2,5'-bipyrimidin]-4-amine]",144,694
"CCOCCOc1ccc(CNc2nc(-c3c(OC)ncnc3C3CC3)ncc2OC)cc1 [Example 99, 4'-Cyclopropyl-N-(4-(2-ethoxyethoxy)benzyl)-5,6'-dimethoxy-[2,5'-bipyrimidin]-4-amine]",15.1,445
"COc1cc(-c2nc(C(F)(F)F)cn2C)ccc1CNc1nc(-c2c(OC)ncnc2C2CC2)ncc1OC [Example 100, 4'-Cyclopropyl-5,6'-dimethoxy-N-(2-methoxy-4-(1-methyl-4-(trifluoromethyl)-1H-imidazol-2-yl)benzyl)-[2,5'-bipyrimidin]-4-amine]",4.1,27.8
"COc1cc(CNc2nc(-c3c(OC)ncnc3C3CC3)ncc2OC)ccc1-c1nc(C(F)(F)F)cn1C [Example 101, 4'-Cyclopropyl-5,6'-dimethoxy-N-(3-methoxy-4-(1-methyl-4-(trifluoromethyl)-1H-imidazol-2-yl)benzyl)-[2,5'-bipyrimidin]-4-amine]",15,99.1
"COc1cc(-n2nc(C(F)(F)F)cc2C)ccc1CNc1nc(-c2c(OC)ncnc2C2CC2)ncc1OC [Example 102, 4'-Cyclopropyl-5,6'-dimethoxy-N-(2-methoxy-4-(5-methyl-3-(trifluoromethyl)-1H-pyrazol-1-yl)benzyl)-[2,5'-bipyrimidin]-4-amine]",4.4,15.8
"COc1cc(CNc2nc(-c3c(OC)ncnc3C3CC3)ncc2OC)ccc1-n1nc(C(F)(F)F)cc1C [Example 103, 4'-Cyclopropyl-5,6'-dimethoxy-N-(3-methoxy-4-(5-methyl-3-(trifluoromethyl)-1H-pyrazol-1-yl)benzyl)-[2,5'-bipyrimidin]-4-amine]",10,141
"COc1cnc(-c2c(OC)ncnc2C2CC2)nc1NCC12CCC(c3nc(C(F)(F)F)cn3C)(CC1)CC2 [Example 104, 4'-Cyclopropyl-5,6'-dimethoxy-N-((4-(1-methyl-4-(trifluoromethyl)-1H-imidazol-2-yl)bicyclo[2.2.2]octan-1-yl)methyl)-[2,5'-bipyrimidin]-4-amine]",8.8,13.7
"COc1cnc(-c2c(OC)ncnc2C2CC2)nc1NCc1ccc(-c2nc(C)cn2C(F)F)cc1 [Example 105, 4'-Cyclopropyl-N-(4-(1-(difluoromethyl)-4-methyl-1H-imidazol-2-yl)benzyl)-5,6'-dimethoxy-[2,5'-bipyrimidin]-4-amine]",60,124
"COc1cnc(-c2c(OC)ncnc2C2CC2)nc1NCc1ccc(-c2nc(C(F)(F)F)cn2C(C)C)cc1 [Example 106, 4'-Cyclopropyl-N-(4-(1-isopropyl-4-(trifluoromethyl)-1H-imidazol-2-yl)benzyl)-5,6'-dimethoxy-[2,5'-bipyrimidin]-4-amine]",2.9,4.7
"COc1cnc(-c2c(OC)ncnc2C2CC2)nc1NCc1ccc(-c2nc(C(F)(F)F)cn2CF)cc1 [Example 107, 4'-Cyclopropyl-N-(4-(1-(fluoromethyl)-4-(trifluoromethyl)-1H-imidazol-2-yl)benzyl)-5,6'-dimethoxy-[2,5'-bipyrimidin]-4-amine]",16,17.5
"COc1ncnc(C2CC2)c1-c1ncc(OC(C)C)c(N(C)CC2CCN(c3nc(C(F)(F)F)cn3C)CC2)n1 [Example 108, 4'-Cyclopropyl-5-isopropoxy-6'-methoxy-N-methyl-N-((1-(1-methyl-4-(trifluoromethyl)-1H-imidazol-2-yl)piperidin-4-yl)methyl)-[2,5'-bipyrimidin]-4-amine]",19.7,353
"COc1ncnc(C2CC2)c1-c1ncc(OC(C)C)c(N(C)Cc2ccc(-c3nc(C(F)(F)F)cn3C)cc2)n1 [Example 109, 4'-Cyclopropyl-5-isopropoxy-6'-methoxy-N-methyl-N-(4-(1-methyl-4-(trifluoromethyl)-1H-imidazol-2-yl)benzyl)-[2,5'-bipyrimidin]-4-amine]",5.3,48.3
"COc1ncnc(C2CC2)c1-c1ncc(OC(C)C)c(NCC2CCN(c3nc(C(F)(F)F)cn3C)CC2)n1 [Example 110, 4'-Cyclopropyl-5-isopropoxy-6'-methoxy-N-((1-(1-methyl-4-(trifluoromethyl)-1H-imidazol-2-yl)piperidin-4-yl)methyl)-[2,5'-bipyrimidin]-4-amine]",28.6,354
"COc1ncnc(C2CC2)c1-c1ncc(OC(C)C)c(NCc2ccc(-c3nc(C(F)(F)F)cn3C)cc2)n1 [Example 111, 4'-Cyclopropyl-5-isopropoxy-6'-methoxy-N-(4-(1-methyl-4-(trifluoromethyl)-1H-imidazol-2-yl)benzyl)-[2,5'-bipyrimidin]-4-amine]",10.4,88.1
"COc1ncnc(C2CC2)c1-c1nc(NCc2ccc(-c3nc(C(F)(F)F)cn3C)s2)c2occc2n1 [Example 113, 2-(4-Cyclopropyl-6-methoxypyrimidin-5-yl)-N-((5-(1-methyl-4-(trifluoromethyl)-1H-imidazol-2-yl)thiophen-2-yl)methyl)furo[3,2-d]pyrimidin-4-amine]",23,87.2
"COc1ncnc(C2CC2)c1-c1nc(NCc2ccc(OCc3ccccn3)cc2)c2occc2n1 [Example 116, 2-(4-Cyclopropyl-6-methoxypyrimidin-5-yl)-N-(4-(pyridin-2-ylmethoxy)benzyl)furo[3,2-d]pyrimidin-4-amine]",19.4,536
"CCOCCOc1ccc(CNc2nc(-c3c(OC)ncnc3C3CC3)nc3ccoc23)cc1 [Example 117, 2-(4-Cyclopropyl-6-methoxypyrimidin-5-yl)-N-(4-(2-ethoxyethoxy)benzyl)furo[3,2-d]pyrimidin-4-amine]",13.8,278

# — EP4741386A1 (Jiangsu Yahong Meditech Co., Ltd., priority 2023, dated 2025)
